The inhibition is the change of the read-out against control, counted positive when it falls.

In assay [1] the test system is L1210. The assay can be described thus: Compound was tested for the inhibition of the transport of aminoisobutyric acid into L1210 cells at the 10 uM concentration after <20 min. The following applies: Mus musculus. The class given is functional.
Assay [2] has as its system L1210. In words: Compound was tested for the inhibition of the transport of methionine into L1210 cells at the 10 uM concentration after <20 min. The assay is classed as functional. The following applies: Mus musculus.

As to CISPLATIN, the inhibition in the assay with L1210 [1] was determined as 15%; in the assay on L1210 [2], 10%.

As for TRANSPLATIN, the inhibition in the assay with L1210 [1] and with L1210 [2] was below 5% each time.

The values above are taken from ChEMBL document CHEMBL1123175, “Synthesis and biological activity of several amino nucleoside-platinum(II) complexes” (1986).
